Tested on: T1, chitinase 1198 Truncated
T1 construct: gene CT01GL001198; perhaps lacks disordered N-terminus (residues 1-201; approx. 63 kD proteolysis bands mentioned)
Assay: p-nitrophenol release, absorbance at […] nm
Type: biochemical, Chitinibacter tainanensis
Conditions: standard assay 50 mM Tris-HCl pH 7.0, substrate 5-300 μM; temperature of kinetic run not stated

Km: 58.3 ± 11 µM
SMILES: CC(=O)N[C@H]1[C@H](Oc2ccc([N+](=O)[O-])cc2)O[C@H](CO)[C@@H](O[C@@H]2O[C@H](CO)[C@@H](O)[C@H](O)[C@H]2NC(C)=O)[C@@H]1O [pNP-(GlcNAc)2]

From PMC7463862, “Gene Cloning, Characterization, and Molecular Simulations of a Novel Recombinant Chitinase from Chitinibacter Tainanensis CT01 Appropriate for Chitin Enzymatic Hydrolysis” (Polymers, 2020)
